Measurements from ChEMBL document CHEMBL1158512, “The antimicrobial activity of compounds from the leaf and stem of Vitis amurensis against two oral pathogens” (2010).
Values after ≈ are worked out from the molar mass of the structure shown. Active and inactive are the calls of the source. No cut-off for these calls is given here.

Columns and labels:
Type in all cases: functional
Streptococcus mutans [1] = experiment: Antimicrobial activity against Streptococcus mutans KCTC 3065 at 50 ug/ml after 20 hrs by disk diffusion method; settings: for zone of inhibition at 50 µg/mL: KCTC 3065, 20 h, read-out: IZ
Streptococcus mutans [2] = experiment: Antimicrobial activity against Streptococcus mutans KCTC 3065 at 100 ug/ml after 20 hrs by disk diffusion method; settings: for zone of inhibition at 100 µg/mL: KCTC 3065, 20 h, read-out: IZ
Streptococcus mutans [3] = experiment: Antimicrobial activity against Streptococcus mutans KCTC 3065 at 200 ug/ml after 20 hrs by disk diffusion method; settings: for zone of inhibition at 200 µg/mL: KCTC 3065, 20 h, read-out: IZ
Streptococcus mutans [4] = experiment: Antimicrobial activity against Streptococcus mutans KCTC 3065 at 400 ug/ml after 20 hrs by disk diffusion method; settings: for zone of inhibition at 400 µg/mL: KCTC 3065, 20 h, read-out: IZ
Streptococcus mutans [5] = experiment: Antimicrobial activity against Streptococcus mutans KCTC 3065 at 600 ug/ml after 20 hrs by disk diffusion method; settings: for zone of inhibition at 600 µg/mL: KCTC 3065, 20 h, read-out: IZ
Streptococcus sanguinis [6] = experiment: Antimicrobial activity against Streptococcus sanguinis NCTC 9811 at 50 ug/ml after 20 hrs by disk diffusion method; settings: for zone of inhibition at 50 µg/mL: NCTC 9811, 20 h, read-out: IZ
Streptococcus sanguinis [7] = experiment: Antimicrobial activity against Streptococcus sanguinis NCTC 9811 at 100 ug/ml after 20 hrs by disk diffusion method; settings: for zone of inhibition at 100 µg/mL: NCTC 9811, 20 h, read-out: IZ
Streptococcus sanguinis [8] = experiment: Antimicrobial activity against Streptococcus sanguinis NCTC 9811 at 200 ug/ml after 20 hrs by disk diffusion method; settings: for zone of inhibition at 200 µg/mL: NCTC 9811, 20 h, read-out: IZ
Streptococcus sanguinis [9] = experiment: Antimicrobial activity against Streptococcus sanguinis NCTC 9811 at 400 ug/ml after 20 hrs by disk diffusion method; settings: for zone of inhibition at 400 µg/mL: NCTC 9811, 20 h, read-out: IZ
Streptococcus sanguinis [10] = experiment: Antimicrobial activity against Streptococcus sanguinis NCTC 9811 at 600 ug/ml after 20 hrs by disk diffusion method; settings: for zone of inhibition at 600 µg/mL: NCTC 9811, 20 h, read-out: IZ
Streptococcus mutans [11] = experiment: Antimicrobial activity against Streptococcus mutans KCTC 3065 assessed as total bacterial adherence inhibition
Streptococcus sanguinis [12] = experiment: Antimicrobial activity against Streptococcus sanguinis NCTC 9811 assessed as total bacterial adherence inhibition
Streptococcus mutans [13] = experiment: Antimicrobial activity against Streptococcus mutans KCTC 3065 after 20 hrs by plate dilution method; settings: KCTC 3065, 20 h
Streptococcus sanguinis [14] = experiment: Antimicrobial activity against Streptococcus sanguinis NCTC 9811 after 20 hrs by plate dilution method; settings: NCTC 9811, 20 h

| Compound | inhibition zone (IZ) (Streptococcus mutans [1]) | inhibition zone (IZ) (Streptococcus sanguinis [6]) | inhibition zone (IZ) (Streptococcus sanguinis [7]) | Concentration for total adherence inhibition (Streptococcus mutans [11]) [µg/mL] | Activity (Streptococcus sanguinis [12]) [µg/mL] | MBC (Streptococcus mutans [13]) [µg/mL] | MBC (Streptococcus sanguinis [14]) [µg/mL] | MIC (Streptococcus sanguinis [14]) [µg/mL] | zone of inhibition at 50 µg/mL (Streptococcus mutans [1]) [mm] | zone of inhibition at 100 µg/mL (Streptococcus mutans [2]) [mm] | zone of inhibition at 200 µg/mL (Streptococcus mutans [3]) [mm] | zone of inhibition at 400 µg/mL (Streptococcus mutans [4]) [mm] | zone of inhibition at 600 µg/mL (Streptococcus mutans [5]) [mm] | zone of inhibition at 50 µg/mL (Streptococcus sanguinis [6]) [mm] | zone of inhibition at 100 µg/mL (Streptococcus sanguinis [7]) [mm] | zone of inhibition at 200 µg/mL (Streptococcus sanguinis [8]) [mm] | zone of inhibition at 400 µg/mL (Streptococcus sanguinis [9]) [mm] | zone of inhibition at 600 µg/mL (Streptococcus sanguinis [10]) [mm] | MIC (Streptococcus mutans [13]) [µg/mL] | also measured |
| --- | --- | --- | --- | --- | --- | --- | --- | --- | --- | --- | --- | --- | --- | --- | --- | --- | --- | --- | --- | --- |
| OC[C@H]1OC(Oc2cc(O)cc(/C=C/c3ccc(O)cc3)c2)[C@H](O)[C@@H](O)[C@@H]1O (stereo not given in full) | inactive | inactive | inactive | – | – | – | – | – | – | – | – | – | – | – | – | – | – | – | – | inhibition zone (IZ) (Streptococcus mutans [2]): inactive; inhibition zone (IZ) (Streptococcus mutans [3]): inactive; inhibition zone (IZ) (Streptococcus mutans [4]): inactive; inhibition zone (IZ) (Streptococcus mutans [5]): inactive; inhibition zone (IZ) (Streptococcus sanguinis [8]): inactive; inhibition zone (IZ) (Streptococcus sanguinis [9]): inactive; inhibition zone (IZ) (Streptococcus sanguinis [10]): inactive |
| CC[C@H]1OC(=O)[C@H](C)[C@@H](O[C@H]2C[C@@](C)(OC)[C@@H](O)[C@H](C)O2)[C@H](C)[C@@H](O[C@@H]2O[C@H](C)C[C@H](N(C)C)[C@H]2O)[C@](C)(O)C[C@@H](C)C(=O)[C@H](C)[C@@H](O)[C@]1(C)O [ERYTHROMYCIN] | – | – | – | 0.78 | 25 | < 1.5 | 50 (≈ 68.1 µM) | 12.5 (≈ 17 µM) | – | – | – | – | – | – | – | – | – | – | – | – |
| Oc1ccc(/C=C/c2cc(O)cc(O)c2)cc1 [RESVERATROL] | – | – | – | 25 | 100 | 50 (≈ 219 µM) | 100 (≈ 438 µM) | 25 (≈ 110 µM) | < 11 | < 15 | 20 | 20 | > 20 | < 11 | < 11 | < 15 | < 15 | 20 | 50 (≈ 219 µM) | – |
| Oc1ccc([C@H]2c3c(O)cc(O)cc3[C@H]3c4c(cc(O)c5c4[C@H]2[C@@H](c2ccc(O)cc2)[C@@H]5c2cc(O)cc(O)c2)O[C@@H]3c2ccc(O)cc2)cc1 [AMURESIN G] | inactive | – | – | 25 | 50 | 50 (≈ 73.5 µM) | 100 (≈ 147 µM) | 12.5 (≈ 18.4 µM) | – | < 11 | < 11 | < 15 | < 15 | < 11 | < 15 | < 15 | < 15 | < 15 | 50 (≈ 73.5 µM) | – |
| Oc1ccc(/C=C/c2cc(O)cc3c2[C@H](c2cc(O)cc(O)c2)[C@@H](c2ccc(O)cc2)O3)cc1 | – | – | – | 25 | 50 | 50 (≈ 110 µM) | 50 (≈ 110 µM) | 12.5 (≈ 27.5 µM) | < 15 | < 15 | 20 | > 20 | > 20 | < 15 | 20 | 20 | 20 | 20 | 25 (≈ 55 µM) | – |
| Oc1cc(O)cc(/C=C/c2ccc(O)c(O)c2)c1 [PICEATANNOL] | – | – | – | 50 | 50 | 100 (≈ 409 µM) | 100 (≈ 409 µM) | 50 (≈ 205 µM) | < 15 | < 15 | 20 | > 20 | > 20 | < 15 | < 15 | 20 | > 20 | > 20 | 50 (≈ 205 µM) | – |
| OC[C@H]1O[C@@H](Oc2cc(O)cc(/C=C/c3ccc(O)c(O)c3)c2)[C@H](O)[C@@H](O)[C@@H]1O | inactive | inactive | inactive | – | – | – | – | – | – | – | – | – | – | – | – | – | – | – | – | inhibition zone (IZ) (Streptococcus mutans [2]): inactive; inhibition zone (IZ) (Streptococcus mutans [3]): inactive; inhibition zone (IZ) (Streptococcus mutans [4]): inactive; inhibition zone (IZ) (Streptococcus mutans [5]): inactive; inhibition zone (IZ) (Streptococcus sanguinis [8]): inactive; inhibition zone (IZ) (Streptococcus sanguinis [9]): inactive; inhibition zone (IZ) (Streptococcus sanguinis [10]): inactive |
| Oc1ccc(C2[C@H]3c4cc(O)cc(O)c4[C@@H](c4ccc(O)cc4)[C@@H]2c2cc(O)cc(O)c23)cc1 (stereo not given in full) | inactive | inactive | inactive | 100 | >200 | 200 (≈ 440 µM) | > 400 | > 400 | – | < 11 | < 15 | < 15 | 20 | – | – | < 11 | < 15 | < 15 | 100 (≈ 220 µM) | – |
